pKi: −log10 of the molar value.

The experiment concerns the target T1, Heparanase (Homo sapiens, UniProt Q9Y251).
T1 sequence (Q9Y251 whole entry): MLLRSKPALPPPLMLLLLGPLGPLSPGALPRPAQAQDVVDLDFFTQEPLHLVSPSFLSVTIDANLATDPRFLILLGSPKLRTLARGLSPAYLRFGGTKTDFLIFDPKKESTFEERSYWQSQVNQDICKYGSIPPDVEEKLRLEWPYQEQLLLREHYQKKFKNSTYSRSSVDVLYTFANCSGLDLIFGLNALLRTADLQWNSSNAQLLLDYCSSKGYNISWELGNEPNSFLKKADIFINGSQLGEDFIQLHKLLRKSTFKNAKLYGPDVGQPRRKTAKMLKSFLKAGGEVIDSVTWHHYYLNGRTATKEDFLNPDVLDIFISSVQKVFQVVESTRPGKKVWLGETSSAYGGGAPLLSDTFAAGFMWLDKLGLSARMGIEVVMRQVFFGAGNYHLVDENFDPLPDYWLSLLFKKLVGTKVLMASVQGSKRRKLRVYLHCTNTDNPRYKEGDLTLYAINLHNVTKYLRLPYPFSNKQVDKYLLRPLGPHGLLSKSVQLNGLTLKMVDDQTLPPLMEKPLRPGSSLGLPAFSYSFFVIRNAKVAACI
The experiment can be described thus: Inhibition of human recombinant heparanase after 2 to 24 hrs by WST1 dye based fondaparinux assay.

On to `O=P(O)(O)OC[C@H]1O[C@H](O[C@@H]2[C@H](OS(=O)(=O)O)[C@@H](O[C@@H]3[C@H](OS(=O)(=O)O)[C@@H](O[C@@H]4[C@H](OS(=O)(=O)O)[C@@H](O[C@@H]5[C@@H](OS(=O)(=O)O)O[C@H](COS(=O)(=O)O)[C@@H](OS(=O)(=O)O)[C@@H]5OS(=O)(=O)O)O[C@H](COS(=O)(=O)O)[C@H]4OS(=O)(=O)O)O[C@H](COS(=O)(=O)O)[C@H]3OS(=O)(=O)O)O[C@H](COS(=O)(=O)O)[C@H]2OS(=O)(=O)O)[C@@H](OS(=O)(=O)O)[C@@H](OS(=O)(=O)O)[C@@H]1OS(=O)(=O)O` [PI-88], for which the pKi was 8.10.

What is called pKi is the negative decadic logarithm of the Ki, by convention in mol/L.

These data come from BindingDB's records for doi:10.1021/jm201708h (Progen Pharmaceuticals, 2012).
